Measured values as given in the supplement of paper PMC5908809.

What was measured:
[1] = system: normal NK cells expanded with K562-aAPC; experiment: percent inhibition of viability; higher = more inhibition; details: 72 h, IL-2 2.5 ng/mL
Protocol: (§1)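 Drug sensitivity and resistance testing on K562-aAPC-expanded normal NK cells: 5 concentrations (10-fold steps over a 10,000-fold range), 72 h at 37 °C, viability by CellTiter-Glo normalised to DMSO and benzethonium chloride controls; DSS from the fitted curve.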

DERL-7 (IL-2 2.5 ng/mL) [2] = experiment: as above; details: 72 h
IMC-1 (IL-2 20 ng/mL) [3] = experiment: as above; details: 72 h
KAI3 (IL-2 2.5 ng/mL) [4] = experiment: as above; details: 72 h
KHYG-1 (IL-2 2.5 ng/mL) [5] = experiment: as above; details: 72 h
NK-92 (IL-2 2.5 ng/mL) [6] = experiment: as above; details: 72 h
NK-YS (IL-2 2.5 ng/mL) [7] = experiment: as above; details: 72 h
NKL (IL-2 2.5 ng/mL) [8] = experiment: as above; details: 72 h
SNK-6 (IL-2 2.5 ng/mL) [9] = experiment: as above; details: 72 h
YT (IL-2 2.5 ng/mL) [10] = experiment: as above; details: 72 h
[11] = system: normal primary NK cells, pool 1 (3 donors) (IL-2 2.5 ng/mL); experiment: as above; details: 72 h
[12] = system: normal primary NK cells, pool 1 (3 donors), resting (IL-2 0 ng/mL); experiment: as above; details: 72 h
[13] = system: normal primary NK cells, pool 2 (3 donors) (IL-2 2.5 ng/mL); experiment: as above; details: 72 h
[14] = system: normal primary NK cells, pool 3 (3 donors) (IL-2 2.5 ng/mL); experiment: as above; details: 72 h
[15] = system: normal NK cells expanded with K562-aAPC; experiment: drug sensitivity score (DSS) (DSS units); higher = more sensitive; extreme values may be limits of the assay; details: 72 h; IL-2 2.5 ng/mL
Protocol: as §1

DERL-7 (IL-2 2.5 ng/mL) [16] = experiment: as above; details: 72 h
IMC-1 (IL-2 20 ng/mL) [17] = experiment: as above; details: 72 h
KAI3 (IL-2 2.5 ng/mL) [18] = experiment: as above; details: 72 h
KHYG-1 (IL-2 2.5 ng/mL) [19] = experiment: as above; details: 72 h
NK-92 (IL-2 2.5 ng/mL) [20] = experiment: as above; details: 72 h
NK-YS (IL-2 2.5 ng/mL) [21] = experiment: as above; details: 72 h
NKL (IL-2 2.5 ng/mL) [22] = experiment: as above; details: 72 h
SNK-6 (IL-2 2.5 ng/mL) [23] = experiment: as above; details: 72 h
YT (IL-2 2.5 ng/mL) [24] = experiment: as above; details: 72 h
[25] = system: normal primary NK cells, pool 1 (3 donors) (IL-2 2.5 ng/mL); experiment: as above; details: 72 h
[26] = system: normal primary NK cells, pool 1 (3 donors), resting (IL-2 0 ng/mL); experiment: as above; details: 72 h
[27] = system: normal primary NK cells, pool 2 (3 donors) (IL-2 2.5 ng/mL); experiment: as above; details: 72 h
[28] = system: normal primary NK cells, pool 3 (3 donors) (IL-2 2.5 ng/mL); experiment: as above; details: 72 h

CC1(C)CNc2cc(NC(=O)c3cccnc3NCc3ccncc3)ccc21 [Motesanib] (max concentration tested 10000 nM)
percent inhibition of viability [%]
Details	1 nM	10 nM	100 nM	1000 nM	10000 nM
DERL-7 (IL-2 2.5 ng/mL) [2]	8.61	2.19	10.7	-4.45	-7.84
IMC-1 (IL-2 20 ng/mL) [3]	-10.7	-4.04	-2.1	5	16.6
KAI3 (IL-2 2.5 ng/mL) [4]	-8.29	-1.63	-3.65	2.07	23.2
KHYG-1 (IL-2 2.5 ng/mL) [5]	-8.69	-5.06	-3.55	8.47	9.44
NK-92 (IL-2 2.5 ng/mL) [6]	5.17	2.14	10.4	20.8	17.9
NK-YS (IL-2 2.5 ng/mL) [7]	-4.47	-3.14	-5.16	6.4	15
NKL (IL-2 2.5 ng/mL) [8]	-8.65	-10.7	-6.54	20	30.4
SNK-6 (IL-2 2.5 ng/mL) [9]	-15.2	-22.6	-22.4	-32.4	-29.5
YT (IL-2 2.5 ng/mL) [10]	-3.76	-2.12	-1.24	6.34	14.4
[1]	-5.87	-5.96	-6.1	8.26	11.9
[11]	-3.57	3.71	11	2.82	-3.82
[12]	4.22	16.2	15.4	16.6	11.9
[13]	-7.61	1.62	3.62	1.34	2.65
[14]	-2.89	5.36	3.67	3.63	9.45

Details	drug sensitivity score
DERL-7 (IL-2 2.5 ng/mL) [16]	0
IMC-1 (IL-2 20 ng/mL) [17]	0.85
KAI3 (IL-2 2.5 ng/mL) [18]	1.11
KHYG-1 (IL-2 2.5 ng/mL) [19]	0
NK-92 (IL-2 2.5 ng/mL) [20]	3.26
NK-YS (IL-2 2.5 ng/mL) [21]	0.73
NKL (IL-2 2.5 ng/mL) [22]	3.62
SNK-6 (IL-2 2.5 ng/mL) [23]	0
YT (IL-2 2.5 ng/mL) [24]	0.65
[15]	0.32
[25]	0
[26]	0
[27]	0
[28]	0

CNC(=O)c1ccc(-c2cnc3ncc(Cc4ccc5ncccc5c4)n3n2)cc1F [NVP-INC280] (max concentration tested 1000 nM)
percent inhibition of viability [%]
Details	0.1 nM	1 nM	10 nM	100 nM	1000 nM
DERL-7 (IL-2 2.5 ng/mL) [2]	-5.28	4.26	-9.16	-6.92	-4.89
IMC-1 (IL-2 20 ng/mL) [3]	0.35	-0.99	7.3	10.2	14.7
KAI3 (IL-2 2.5 ng/mL) [4]	-3.13	-7.87	2.81	8.6	10.3
KHYG-1 (IL-2 2.5 ng/mL) [5]	0.53	0.71	6.28	8.45	7.71
NK-92 (IL-2 2.5 ng/mL) [6]	-4.47	-11.1	1.26	-6.37	7.6
NK-YS (IL-2 2.5 ng/mL) [7]	-3.18	-2.55	2.09	4.91	7.49
NKL (IL-2 2.5 ng/mL) [8]	-14.8	-12	-3.62	-0.32	1.94
SNK-6 (IL-2 2.5 ng/mL) [9]	1.66	-4.69	8.68	23.7	31.8
YT (IL-2 2.5 ng/mL) [10]	-0.04	-0.12	2.87	3.88	14.8
[1]	3.07	-1.65	0.35	12.4	9.59
[11]	-3.26	-0.85	-0.05	-8.05	-1.86
[12]	-4.36	11.4	-16.1	-15.8	-5.95
[13]	-5.16	-9.82	0.45	-1.98	7.71
[14]	-4.63	-9.7	-8.57	-10.9	-0.53

Details	drug sensitivity score
DERL-7 (IL-2 2.5 ng/mL) [16]	0
IMC-1 (IL-2 20 ng/mL) [17]	0.81
KAI3 (IL-2 2.5 ng/mL) [18]	0.03
KHYG-1 (IL-2 2.5 ng/mL) [19]	0
NK-92 (IL-2 2.5 ng/mL) [20]	0
NK-YS (IL-2 2.5 ng/mL) [21]	0
NKL (IL-2 2.5 ng/mL) [22]	0
SNK-6 (IL-2 2.5 ng/mL) [23]	4.62
YT (IL-2 2.5 ng/mL) [24]	0.42
[15]	0.67
[25]	0
[26]	0
[27]	0
[28]	0
